We go through 2 compounds from US9163024B2, “Tris salts of 8-chloro-3-pentyl-3,7-dihydro-1H-purine-2,6-dione” (GlaxoSmithKline LLC, priority 2008, dated 2015).

Data set [1] can be described thus: physical stability: conversion to a hydrated form during aqueous based processing (wet granulation). It counts as physicochemical. The conditions noted are these: during essential manufacturing processes / aqueous based processing steps, e.g. wet granulation; tris salt compared to free acid.
The nature of data set [2]: solubility. It counts as physicochemical. The conditions noted are these: tris salt compared to free acid.
Data set [3] is described as follows: absorption (Cmax, Tmax). It counts as in vivo. To be noted: tris salt compared to free acid.

Where a name gives a salt, the structure may show the parent alone.

With `CCCCCn1c(=O)[nH]c(=O)c2[nH]c(Cl)nc21` [free acid, 8-chloro-3-pentyl-3,7-dihydro-1H-purine-2,6-dione], the “physical stability (remains in original form, no conversion by hydration)” value in data set [1] is recorded as “readily convert to a hydrated form”.
With `CCCCCn1c(=O)[nH]c(=O)c2[nH]c(Cl)nc21` [tris salt, 8-chloro-3-pentyl-3,7-dihydro-1H-purine-2,6-dione trishydroxymethylaminomethane], the “physical stability (remains in original form, no conversion by hydration)” value in data set [1] is listed as “enhanced physical stability”. Also, the solubility entry in data set [2] is given as “higher solubility than the free acid”. Also, the Cmax result in data set [3] is reported as “increased”. In data set [3] (indicates faster absorption), the Tmax entry is given as “decreased”.
